Data as given in PubChem BioAssay (NCI).
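Tested at 5 concentrations; 48 h exposure; 96-well plates; endpoints linearly interpolated, else capped at highest concentration. TGI: total growth inhibition.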

Legend:
Experiment in all cases: growth of human tumour cells (NCI), 48 h
786-0 renal = test system: 786-0 renal
A498 renal = test system: A498 renal
A549 NSCLC = test system: A549 NSCLC
ACHN renal = test system: ACHN renal
CAKI-1 renal = test system: CAKI-1 renal
CCRF-CEM leukemia = test system: CCRF-CEM leukemia
COLO 205 colon = test system: COLO 205 colon
DU-145 prostate = test system: DU-145 prostate
EKVX NSCLC = test system: EKVX NSCLC
HCC-2998 colon = test system: HCC-2998 colon
HCT-116 colon = test system: HCT-116 colon
HCT-15 colon = test system: HCT-15 colon
HL-60(TB) leukemia = test system: HL-60(TB) leukemia
HOP-62 NSCLC = test system: HOP-62 NSCLC
HOP-92 NSCLC = test system: HOP-92 NSCLC
HS 578T breast = test system: HS 578T breast
HT29 colon = test system: HT29 colon
IGROV1 ovarian = test system: IGROV1 ovarian
K-562 leukemia = test system: K-562 leukemia
KM12 colon = test system: KM12 colon
LOX IMVI melanoma = test system: LOX IMVI melanoma
M14 melanoma = test system: M14 melanoma
MALME-3M melanoma = test system: MALME-3M melanoma
MCF7 breast = test system: MCF7 breast
MDA-MB-231 breast = test system: MDA-MB-231 breast
MDA-MB-435 = test system: MDA-MB-435
MDA-N = test system: MDA-N
MOLT-4 leukemia = test system: MOLT-4 leukemia
NCI-H226 lung = test system: NCI-H226 lung
NCI-H23 lung = test system: NCI-H23 lung
NCI-H460 lung = test system: NCI-H460 lung
NCI-H522 lung = test system: NCI-H522 lung
NCI/ADR-RES ovarian = test system: NCI/ADR-RES ovarian
OVCAR-3 ovarian = test system: OVCAR-3 ovarian
OVCAR-4 ovarian = test system: OVCAR-4 ovarian
OVCAR-5 ovarian = test system: OVCAR-5 ovarian
OVCAR-8 ovarian = test system: OVCAR-8 ovarian
PC-3 prostate = test system: PC-3 prostate
RPMI-8226 leukemia = test system: RPMI-8226 leukemia
RXF 393 renal = test system: RXF 393 renal
SF-268 CNS = test system: SF-268 CNS
SF-295 CNS = test system: SF-295 CNS
SF-539 CNS = test system: SF-539 CNS
SK-MEL-2 melanoma = test system: SK-MEL-2 melanoma
SK-MEL-28 melanoma = test system: SK-MEL-28 melanoma
SK-MEL-5 melanoma = test system: SK-MEL-5 melanoma
SK-OV-3 ovarian = test system: SK-OV-3 ovarian
SN12C renal = test system: SN12C renal
SNB-19 CNS = test system: SNB-19 CNS
SNB-75 CNS = test system: SNB-75 CNS
SR leukemia = test system: SR leukemia
SW-620 colon = test system: SW-620 colon
T-47D breast = test system: T-47D breast
TK-10 renal = test system: TK-10 renal
U251 CNS = test system: U251 CNS
UACC-257 melanoma = test system: UACC-257 melanoma
UO-31 renal = test system: UO-31 renal

Measured: TGI

Cc1cc2c(cc1C(=O)CCC(=O)O)CC1(C2)Cc2cc(C)c(C(=O)CCC(=O)O)cc2C1
> 100 µM: all assays above
